Measured values taken from the NIST ThermoML archive (doi:10.1016/j.jct.2015.06.005).

Columns and labels:
[1] = xn = mol fraction of the nth substance listed; conditions: 100 kPa, Liquid; for mass density: Vibrating tube method; for speed of sound: Frequency=3 MHz, Sing-around technique in a fixed-path interferometer
[2] = refractive index (Na D-line) (dimensionless); xn = mol fraction of the nth substance listed; conditions: 100 kPa, Liquid, Standard Abbe refractometry

CCCCCCCCN1CCCC1=O [N-octyl-2-pyrrolidone] + CCCCn1cc[n+](C)c1.F[B-](F)(F)F
Conditions | mass density, 318.15 K [kg/m3] | mass density, 323.15 K [kg/m3] | refractive index, 298.15 K | refractive index, 303.15 K | refractive index, 308.15 K | refractive index, 313.15 K | refractive index, 318.15 K | refractive index, 323.15 K | speed of sound, 323.15 K [m/s]
[1], x2 = 0 | 903.83 | 900.17 | – | – | – | – | – | – | 1364
[1], x2 = 0.1084 | 931.01 | 927.39 | – | – | – | – | – | – | 1372.3
[1], x2 = 0.196 | 951.01 | 947.4 | – | – | – | – | – | – | 1376.7
[1], x2 = 0.3023 | 977.05 | 973.44 | – | – | – | – | – | – | 1382.7
[1], x2 = 0.4087 | 1005.86 | 1002.29 | – | – | – | – | – | – | 1391.8
[1], x2 = 0.5064 | 1031.07 | 1027.48 | – | – | – | – | – | – | 1400.8
[1], x2 = 0.6027 | 1060.13 | 1056.67 | – | – | – | – | – | – | 1415.6
[1], x2 = 0.6981 | 1089.38 | 1085.86 | – | – | – | – | – | – | 1432.2
[1], x2 = 0.7966 | 1118.83 | 1115.32 | – | – | – | – | – | – | 1453.3
[1], x2 = 0.8978 | 1150.62 | 1147.1 | – | – | – | – | – | – | 1478.6
[2], x2 = 0 | – | – | 1.46346 | 1.46152 | 1.45955 | 1.45761 | 1.45564 | 1.45367 | –
[2], x2 = 0.1084 | – | – | 1.46095 | 1.45882 | 1.45675 | 1.45482 | 1.45292 | 1.45088 | –
[2], x2 = 0.196 | – | – | 1.45803 | 1.45622 | 1.45433 | 1.45243 | 1.45054 | 1.44862 | –
[2], x2 = 0.3023 | – | – | 1.45399 | 1.45226 | 1.45051 | 1.44871 | 1.44692 | 1.44512 | –
[2], x2 = 0.4087 | – | – | 1.44986 | 1.4482 | 1.44653 | 1.44484 | 1.44312 | 1.44146 | –
[2], x2 = 0.5064 | – | – | 1.44556 | 1.44392 | 1.4423 | 1.44059 | 1.43894 | 1.43731 | –
[2], x2 = 0.6027 | – | – | 1.44155 | 1.43996 | 1.43842 | 1.43681 | 1.43513 | 1.43346 | –
[2], x2 = 0.6981 | – | – | 1.43713 | 1.43564 | 1.43416 | 1.43266 | 1.43111 | 1.42954 | –
[2], x2 = 0.7966 | – | – | 1.43209 | 1.4307 | 1.42923 | 1.42777 | 1.4263 | 1.42478 | –
[2], x2 = 0.8978 | – | – | 1.42695 | 1.42526 | 1.42379 | 1.4223 | 1.4208 | 1.41935 | –
